Several values for one entry are separate records, joined by “and”; a condition that tells them apart may be missing. Identical values can stand only once. Entries after “also recorded” stand apart in the source; their conditions may differ. Like-named read-outs stand apart in the source and are kept apart here.
Columns and labels:
HIV-1 infected JM cells = experiment: Treatment of HIV-1 infected JM cells with DIDS, SITS and ddC; assay type: cell-based, HIV-1 (human T cell line JM)
Protocol: Protocol: JM cells were infected with HIV to give approximately 100 syncytia after 3 days. Virus adsorption was at room temperature for 2 hours. The cells were then washed thoroughly and distributed in wells of a tissue culture plate at a concentration of 1×10^5 cells/well. At 24 hours post infection either DIDS (100 μg/ml), SITS (100 μg/ml), or ddC (5 μM) were added to wells having infected cells. As virus controls, some wells had no drug added. At 42 hours post infection other wells received either ddC (5 μM), SITS (100 μg/ml), or DIDS (100, 50, 25, 12.5, 6.25 μg/ml). Syncytia were scored at 3 and 4 days post-infection and the supernatant fluids were harvested after 3 and 4 days for p24 core antigen determination.

[1] = tested on: virus-induced cell fusion (gp120-CD4 dependent); experiment: Cell fusion after pretreatment of uninfected C8166 cells, washing and mixing with chronically infected H9 cells; assay type: cell-based, HIV-1; human H9 and C8166 cells; details: 100 μg/ml; overnight pretreatment, washed; 6 hour observation
Protocol: In the next experiments, CD4+ C8166 cells were pretreated overnight with either DIDS (100 μg/ml), SITS (100 μg/ml) or drug-free medium. Unabsorbed compounds were removed by repeated washings and chronically infected H9 cells were then added. […] Thus, cell washing prior to mixing with the H9 cells oblated the protective effect observed above (FIG. 1, Panel E) when 500,000 MW dextran sulfate was continually present in the assay.
Pretreatment of CD4+ C8166 cells with DIDS blocks fusion with chronically infected H9 cells. In this experiment, C8166 cells were pretreated overight with various stilbene disulfonic acids or drug-free medium (fusion control). The cells were washed, incubated with chronically infected H9 cells and syncytia were photographed at 6 hours post-mixing. Pretreatment conditions were as follows: […]: 100 μg/ml SITS; FIG. 2B: drug-free medium; and FIG. 2C: 100 μg/ml DIDS.
In pretreatment experiments, CD4^+ C8166 cells were maintained in serum-free medium (RPMI 1640 plus human transferrin 50 μg/ml, bovine insulin 20 μg/ml, bovine serum albumin 2 mg/ml) and were exposed to compound by overnight incubation. Treated cells were washed twice in fresh serum-free medium and then cocultured with chronically infected H9 cells in serum-free medium. Otherwise, cell numbers, assay conditions and scoring of syncytia were as described above.
Protocol: C8166 cells were pretreated for 2.5 hours with either DIDS, SITS or H2 DIDS (at 500 and 250 μg/ml). The cells were then washed three times and mixed with H9 cells chronically infected with HIV-1. Cell fusion was quantified after 4 and 24 hours.

HIV-1 = experiment: Back titration of cell-free supernatants (infectivity) on fresh uninfected JM cells; assay type: cell-based, HIV-1 (human T cell line JM); details: for viral infectivity in the cell-free supernatants: data not shown
Protocol: Protocol: JM cells were infected with HIV-1 to give a multiplicity of infection of 0.001. Virus adsorption was for 2 hours at room temperature. The cells were washed and distributed into wells containing different concentrations of test compounds and incubated. After 2 days the cells were observed and syncytia were counted. The cell-free supernatant fluids were harvested at 4 and 6 days post infection and assayed for levels of p24 viral core antigen and after 6 days the supernatants were also titrated to determine levels of infectivity.
*Syncytia-forming unit; cellfree supernatants from virus infected cells
having received the indicated concentration of compounds were incubated
with fresh uninfected JM cells and syncytia were scored to determine the
number of infectious units/ml.
supernatants from virusinfected control cells not having received drug

HCMV = experiment: Plaque reduction assay, HCMV; assay type: cell-based
Protocol: Protocol: Plaque reduction assay. Treatment after adsorption during incubation.

[2] = tested on: virus-induced cell fusion (gp120-CD4 dependent); experiment: Anti-syncytial cocultivation assay: H9 cells chronically infected with HIV-1 RF mixed with uninfected C8166 cells; assay type: cell-based, HIV-1 RF; human H9 and C8166 cells; details: 200 μg/ml; Panel C

## O=S(=O)(O)c1cc(N=C=S)ccc1C=Cc1ccc(N=C=S)cc1S(=O)(=O)O [DIDS, 4,4'-diisothiocyanatostilbene-2,2'-disulfonic acid]
HIV-1 infected JM cells; 6 μg/ml, added 42 hr
  Mean syncytia/well 3 days p.i.: As VC
  Mean syncytia/well 4 days p.i.: As VC
  p24 antigen 3 days p.i.: 18000 pg/mL
  p24 antigen 4 days p.i.: 34000 pg/mL
HIV-1 infected JM cells; 12 μg/ml, added 42 hr
  Mean syncytia/well 3 days p.i.: As VC
  Mean syncytia/well 4 days p.i.: As VC
  p24 antigen 3 days p.i.: 210000 pg/mL
  p24 antigen 4 days p.i.: 390000 pg/mL
HIV-1 infected JM cells; 25 μg/ml, added 42 hr
  Mean syncytia/well 3 days p.i.: As VC
  Mean syncytia/well 4 days p.i.: As VC
  p24 antigen 3 days p.i.: 15000 pg/mL
  p24 antigen 4 days p.i.: 59000 pg/mL
HIV-1 infected JM cells; 50 μg/ml, added 42 hr
  Mean syncytia/well 3 days p.i.: > 80
  Mean syncytia/well 4 days p.i.: 100
  p24 antigen 3 days p.i.: 19200 pg/mL
  p24 antigen 4 days p.i.: 63000 pg/mL
HIV-1 infected JM cells; 100 μg/ml, added 24 hr
  Mean syncytia/well 3 days p.i.: 0
  Mean syncytia/well 4 days p.i.: 20
  p24 antigen 3 days p.i.: 6100 pg/mL
  p24 antigen 4 days p.i.: 15800 pg/mL
HIV-1 infected JM cells; 100 μg/ml, added 42 hr
  Mean syncytia/well 3 days p.i.: 34
  Mean syncytia/well 4 days p.i.: 70
  p24 antigen 3 days p.i.: 19800 pg/mL
  p24 antigen 4 days p.i.: 20900 pg/mL
HIV-1 infected JM cells; Human immunodeficiency virus 1, 72 h, 6 μg/ml, added 42 hr, read-out: p24 antigen 3 days p.i., % control
  activity at 6 µg/mL: 38%
HIV-1 infected JM cells; Human immunodeficiency virus 1, 72 h, 12 μg/ml, added 42 hr, read-out: p24 antigen 3 days p.i., % control
  activity at 12 µg/mL: > 100%
HIV-1 infected JM cells; Human immunodeficiency virus 1, 72 h, 25 μg/ml, added 42 hr, read-out: p24 antigen 3 days p.i., % control
  activity at 25 µg/mL: 32%
HIV-1 infected JM cells; Human immunodeficiency virus 1, 72 h, 50 μg/ml, added 42 hr, read-out: p24 antigen 3 days p.i., % control
  activity at 50 µg/mL: 41%
HIV-1 infected JM cells; Human immunodeficiency virus 1, 72 h, 100 μg/ml, added 24 hr, read-out: p24 antigen 3 days p.i., % control
  activity at 100 µg/mL: 13%
HIV-1 infected JM cells; Human immunodeficiency virus 1, 72 h, 100 μg/ml, added 42 hr, read-out: p24 antigen 3 days p.i., % control
  activity at 100 µg/mL: 42%
HIV-1 infected JM cells; Human immunodeficiency virus 1, 96 h, 6 μg/ml, added 42 hr, read-out: p24 antigen 4 days p.i., % control
  activity at 6 µg/mL: 38%
HIV-1 infected JM cells; Human immunodeficiency virus 1, 96 h, 12 μg/ml, added 42 hr, read-out: p24 antigen 4 days p.i., % control
  activity at 12 µg/mL: 44%
HIV-1 infected JM cells; Human immunodeficiency virus 1, 96 h, 25 μg/ml, added 42 hr, read-out: p24 antigen 4 days p.i., % control
  activity at 25 µg/mL: 66%
HIV-1 infected JM cells; Human immunodeficiency virus 1, 96 h, 50 μg/ml, added 42 hr, read-out: p24 antigen 4 days p.i., % control
  activity at 50 µg/mL: 70%
HIV-1 infected JM cells; Human immunodeficiency virus 1, 96 h, 100 μg/ml, added 24 hr, read-out: p24 antigen 4 days p.i., % control
  activity at 100 µg/mL: 18%
HIV-1 infected JM cells; Human immunodeficiency virus 1, 96 h, 100 μg/ml, added 42 hr, read-out: p24 antigen 4 days p.i., % control
  activity at 100 µg/mL: 23%
[1]
  syncytia / fusion after pretreatment: remained syncytia-free; also recorded: blocks fusion
HIV-1; 12.5 μg/ml
  Back titration of cell-free supernatants at 6 days p.i.: 2.4 × 10^3 SFUs/ml
HIV-1; 50 μg/ml
  Back titration of cell-free supernatants at 6 days p.i.: < 10^1 SFUs/ml
HIV-1; 100 μg/ml
  Back titration of cell-free supernatants at 6 days p.i.: < 10^1 SFUs/ml
HIV-1
  viral infectivity in the cell-free supernatants: absence of viral infectivity
HCMV; 1 μg/ml, first count
  Plaque counts: 15
HCMV; 1 μg/ml, second count
  Plaque counts: 14
HCMV; 10 μg/ml, first count
  Plaque counts: 16
HCMV; 10 μg/ml, second count
  Plaque counts: 12
HCMV; 10 μg/ml, third count
  Plaque counts: 11
HCMV; 100 μg/ml, first count
  Plaque counts: 3
HCMV; 100 μg/ml, second count
  Plaque counts: 4
HCMV; 100 μg/ml, third count
  Plaque counts: 3
HCMV; 1000 μg/ml, first count
  Plaque counts: 0
HCMV; 1000 μg/ml, second count
  Plaque counts: 0
HCMV; 1000 μg/ml, third count
  Plaque counts: 0
HCMV; Human betaherpesvirus 5, 1 μg/ml, read-out: Mean % VC (plaques)
  activity at 1 µg/mL: 49%
HCMV; Human betaherpesvirus 5, 10 μg/ml, read-out: Mean % VC (plaques)
  activity at 10 µg/mL: 43%
HCMV; Human betaherpesvirus 5, 100 μg/ml, read-out: Mean % VC (plaques)
  activity at 100 µg/mL: 10%
HCMV; Human betaherpesvirus 5, 1000 μg/ml, read-out: Mean % VC (plaques)
  activity at 1000 µg/mL: 0%

## CC(=O)Nc1ccc(C=Cc2ccc(N=C=S)cc2S(=O)(=O)O)c(S(=O)(=O)O)c1 [SITS, 4-acetamido-4'-isothiocyanatostilbene-2,2'-disulfonic acid]
HIV-1 infected JM cells; 100 μg/ml, added 24 hr
  Mean syncytia/well 3 days p.i.: As VC
  Mean syncytia/well 4 days p.i.: As VC
  p24 antigen 3 days p.i.: 18000 pg/mL
  p24 antigen 4 days p.i.: 62500 pg/mL
HIV-1 infected JM cells; 100 μg/ml, added 42 hr
  Mean syncytia/well 3 days p.i.: As VC
  Mean syncytia/well 4 days p.i.: As VC
  p24 antigen 3 days p.i.: 7000 pg/mL
  p24 antigen 4 days p.i.: 95000 pg/mL
HIV-1 infected JM cells; Human immunodeficiency virus 1, 72 h, read-out: p24 antigen 3 days p.i., % control, 100 μg/ml, added 24 hr
  activity at 100 µg/mL: 38%
HIV-1 infected JM cells; Human immunodeficiency virus 1, 72 h, read-out: p24 antigen 3 days p.i., % control, 100 μg/ml, added 42 hr
  activity at 100 µg/mL: 15%
HIV-1 infected JM cells; Human immunodeficiency virus 1, 96 h, read-out: p24 antigen 4 days p.i., % control, 100 μg/ml, added 24 hr
  activity at 100 µg/mL: 70%
HIV-1 infected JM cells; Human immunodeficiency virus 1, 96 h, read-out: p24 antigen 4 days p.i., % control, 100 μg/ml, added 42 hr
  activity at 100 µg/mL: > 100%
[1]
  syncytia / fusion after pretreatment: failed to block syncytia
HIV-1; 25 μg/ml
  Back titration of cell-free supernatants at 6 days p.i.: 1.9 × 10^3 SFUs/ml and 2.5 × 10^3 SFUs/ml
HIV-1; 100 μg/ml
  Back titration of cell-free supernatants at 6 days p.i.: < 10^1 SFUs/ml
HIV-1
  viral infectivity in the cell-free supernatants: absence of viral infectivity
[2]
  cell fusion / syncytia: had no effect

— patent US5494932A, “Sulfonic stilbene derivatives in the treatment of viral disease” (Merrell Dow Pharmaceuticals Inc., priority 1991, dated 1996)
